In US11491232B2, “Lactuloside compounds and preparation and use thereof” (Fruithy Holdings Limited, priority 2017, dated 2022):

Columns and labels:
colon flora = assay: Stability in the presence of colon flora (content in colon of rat); format: in vitro ADME, SD rat
Protocol: A phosphate buffer solution with a pH of 7.0 was formulated, and then CO2 was introduced to the solution to adjust the pH to 6.8. Then, the content in colon of a male SD rat (body weight: 180-220 g) was placed in a water bath at 37° C., and added into the phosphate buffer solution with a pH of 6.8 as prepared above under the protection of N2 to a concentration of 20% (w/v). The buffer solution was kept in an oxygen-free environment. Then, the test Compound 17 was added to the buffer solution, and the solution was stirred uniformly.
Supernatant was analyzed with HPLC, where the amount of each ingredient was calculated by normalization.
Note: in the above table, “T14.148 (%)” represents the percentage of peak area of the material with a retention time of 14.148 min “T14.713 (%)” represents the percentage of peak area of the material with a retention time of 14.713 min. “T16.392 (%)” represents the percentage of peak area of the material with a retention time of 16.392 min. “T22.624 (%)” represents the percentage of peak area of the material with a retention time of 22.624 min.
(§1) Other typical example compounds were tested for stability according to the above method, and the test results are shown in Table 8 below.

[1] = Test on stability in mediums in vitro (buffer solutions with different pH, simulated intestinal fluid, simulated gastric fluid); format: physicochemical
Protocol: At 37° C., Compound 17 was incubated in different mediums (buffer solutions with different pH, a simulated intestinal fluid containing pancreatin, and simulated gastric fluid containing pepsin).
as §1

[2] = male, Sprague-Dawley (SD), rat, 1 h, pH 6.8
[3] = Simulated intestinal fluid (containing pancreatin) (pH 6.8) (8 h)
[4] = Content in colon (pH 6.8) (1 h)

Structure (SMILES)	Percentage of the example compound remaining (Composition, %) (colon flora; [2]) [%]	Percentage of the released active drug (prednisolone, dexamethasone, budesonide, apremilast or prucalopride) (Composition, %) (colon flora; [2]) [%]	Percentage of the example compound remaining (Composition, %) [1, 3] [%]	Percentage of the released active drug (prednisolone, dexamethasone, budesonide, apremilast or prucalopride) (Composition, %) [1, 3] [%]	Percentage of the example compound remaining (Composition, %) ([1]; Water (pH 1.2) (2 h)) [%]	Percentage of the released active drug (prednisolone, dexamethasone, budesonide, apremilast or prucalopride) (Composition, %) ([1]; Water (pH 1.2) (2 h)) [%]	Percentage of the example compound remaining (Composition, %) (colon flora; [4]) [%]
C[C@@H]1C[C@H]2[C@@H]3CCC4=CC(=O)C=C[C@]4(C)[C@@]3(F)[C@@H](O)C[C@]2(C)[C@@]1(O)C(=O)COC1(CO)O[C@H](CO)[C@@H](O[C@@H]2O[C@H](CO)[C@H](O)[C@H](O)[C@H]2O)[C@@H]1O (stereo partly drawn) [Compound 4, (11β,16α)-9-fluoro-11,17-dihydroxyl-16-methyl-21-{[4-O-(β-D-galactopyranosyl)-D-fructofuranosyl]oxy}pregna-1,4-diene-3,20-dione]	15.6	50.3	99.4	0	25.0	72.7	–
CCCC1O[C@@H]2C[C@H]3[C@@H]4CCC5=CC(=O)C=C[C@]5(C)[C@H]4[C@@H](O)C[C@]3(C)[C@]2(C(=O)COC2(CO)O[C@H](CO)C(O[C@@H]3OC(CO)[C@H](O)C(O)C3O)C2O)O1 (stereo partly drawn) [Compound 7, (11β,16α)-11-hydroxyl-16,17-(butylidenedioxy)-21-{[4-O-(β-D-galactopyranosyl)-D-fructofuranosyl]oxy}pregna-1,4-diene-3,20-dione]	27.2	45.9	98.9	0.1	20.0	61.6	–
CCOc1cc([C@@H](CS(C)(=O)=O)N2C(=O)c3cccc(N(C(C)=O)C4(CO)O[C@H](CO)C(O[C@@H]5OC(CO)[C@H](O)C(O)C5O)C4O)c3C2=O)ccc1OC (stereo partly drawn) [Compound 12, N-{2-[(S)-1-(3-ethoxy-4-methoxyphenyl)-2-(methylsulfonyl)ethyl]-1,3-dioxo-2,3-dihydro-1H-isoindol-4-yl}-N′-[4-O-(β-D-galactopyranosyl)-D-fructofuranosyl]acetamide]	–	–	100	0	20.0	79.8	30.1
COCCCN1CCC(N(C(=O)c2cc(Cl)c(N)c3c2OCC3)C2(CO)O[C@H](CO)C(O[C@@H]3OC(CO)[C@H](O)C(O)C3O)C2O)CC1 (stereo partly drawn) [Compound 13, 4-amino-5-chloro-2,3-dihydro-N-[1-(3-methoxypropyl)-4-piperidinyl]-N′-[4-O-(β-D-galactopyranosyl)-D-fructofuranosyl]-7-benzofurancarboxamide]	–	–	99.4	0	4.4	95.0	18.7
COCCCN1CCC(NC(=O)c2cc(Cl)c(NC3(CO)O[C@H](CO)[C@@H](O[C@@H]4O[C@H](CO)[C@H](O)[C@H](O)[C@H]4O)[C@@H]3O)c3c2OCC3)CC1 (stereo partly drawn) [Compound 14, 5-chloro-2,3-dihydro-4-{[4-O-(β-D-galactopyranosyl)-D-fructofuranosyl]amino}-N-[1-(3-methoxypropyl)-4-piperidinyl]-7-benzofurancarboxamide]	–	–	98.3	1.1	–	99.5	2.1
